Data from patent US11628159B2, “Cell-protective compounds and their use” (ETH ZURICH, priority 2017, dated 2023).
Entries after “also recorded” stand apart in the source; their conditions may differ. Where two headings read alike, the source gives them in different places.

T1: GRK2 (Homo sapiens, UniProt P25098)
T1 construct: fused on or other part: hexahistidine tag
T1 sequence (P25098 1-669 limits assumed): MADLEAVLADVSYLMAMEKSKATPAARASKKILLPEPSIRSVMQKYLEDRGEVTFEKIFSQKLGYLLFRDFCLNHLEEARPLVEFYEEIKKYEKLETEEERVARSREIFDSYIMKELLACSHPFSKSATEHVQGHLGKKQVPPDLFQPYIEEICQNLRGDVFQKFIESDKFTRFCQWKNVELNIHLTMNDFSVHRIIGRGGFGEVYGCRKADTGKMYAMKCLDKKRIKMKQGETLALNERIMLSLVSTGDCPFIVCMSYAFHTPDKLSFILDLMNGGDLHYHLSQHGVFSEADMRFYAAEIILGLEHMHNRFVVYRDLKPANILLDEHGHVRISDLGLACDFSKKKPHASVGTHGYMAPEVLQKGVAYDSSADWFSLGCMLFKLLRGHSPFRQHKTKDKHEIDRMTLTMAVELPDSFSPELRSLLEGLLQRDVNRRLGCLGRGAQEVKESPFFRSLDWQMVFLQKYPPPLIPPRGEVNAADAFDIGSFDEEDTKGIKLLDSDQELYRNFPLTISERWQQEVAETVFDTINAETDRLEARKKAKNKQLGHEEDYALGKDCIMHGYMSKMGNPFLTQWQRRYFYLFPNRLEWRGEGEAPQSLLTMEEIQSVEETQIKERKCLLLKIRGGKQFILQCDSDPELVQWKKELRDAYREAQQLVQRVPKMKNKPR

B1: RKIP: raf kinase inhibitor protein, a dual-specific GRK2 and Raf kinase inhibitor (protein, UniProt P30086 2-187, looked up)
Phosphatidylethanolamine-bindi …: PVDLSKWSGPLSLQEVDEQPQHPLHVTYAGAAVDELGKVLTPTQVKNRPTSISWDGLDSGKLYTLVLTDPDAPSRKDPKYREWHHFLVVNMKGNDISSGTVLSDYVGSGPPKGTGLHRYVWLVYEQDRPLKCDEPILSNRSGDHRGKFKVASFRKKYELRAPVAGTCYQAEWDDYVPKLYEQLSGK

Experiments:
[1] = target: T1, GRK2; experiment: In vitro phosphorylation assay: GRK2-mediated phosphorylation of SRSF1 with purified proteins; format: biochemical; conditions: for IC50: purified proteins
Protocol: The GRK2-mediated phosphorylation of SRSF1 was determined with purified proteins in the presence of increasing concentrations of paroxetine or different small molecule compounds. SRSF1 phosphorylation is presented as % of control, which is the SRSF1 phosphorylation in the absence of inhibitor.
Recombinant human GRK2 protein and GRK2-S670A protein was expressed in and purified from Spodoptera frugiperda (Sf9) cells by the baculoviral expression system. […] Sf9 cells were infected with recombinant baculoviruses at an MOI of 2-3, 48 h after infection cells were harvested by centrifugation, lysed with lysis buffer (300 mM NaCl, 50 mM HEPES, pH 7.5 supplemented with 1% NP40, 1 mM PMSF and protease inhibitor cocktail) and applied to Ni-NTA chromatography. After overnight incubation at 4° C., unbound proteins were removed by washing with lysis buffer (20× column volumes) followed by 1× column volume of 30 mM imidazole-containing lysis buffer. Bound GRK2 was eluted by 300 mM imidazole in lysis buffer, desalted by PD10 column chromatograpy, supplemented with 20% glycerol and stored at −80° C. for further use.
Protein-expressing bacteria were collected by centrifugation, frozen in liquid nitrogen and thawed on ice in lysis buffer (8 M urea, 300 mM NaCl, 50 mM HEPES, 10 mM imidazole, pH 7.5), which was supplemented with 2-mercaptoethanol (0.7 ml/L) freshly before use (10 ml of lysis buffer for a bacterial pellet from 200 ml of culture medium). The bacterial lysate was incubated for 1 h at room temperature, sonicated and centrifuged for 15 min at 4000×g at 4° C. The supernatant was applied to the Ni-NTA column matrix prewashed with 20 ml of lysis buffer. […] Finally, proteins were eluted with elution buffer (300 mM NaCl, 50 mM HEPES, 500 mM imidazole, pH 7.5, supplemented freshly with 0.7 ml/L 2-mercaptoethanol). Buffer of eluted proteins was exchanged to 150 mM NaCl, 50 mM HEPES (pH 7.5) by PD10 column chromatography.
Recombinant proteins were used for an in vitro phosphorylation assay with GRK2 and GRK2-S670A. […] After an incubation for 30 min at 30° C., the reaction was stopped by the addition of 5×SDS-Laemmli buffer. Proteins were separated by SDS-PAGE and subjected to autoradiography. […] After an incubation for 30-60 min at 30° C., the phosphorylation was stopped by the addition of 5 volumes of ice-cold reaction buffer. The reaction mixtures were immediately applied to glass fiber filters (GF/C, WHATMAN™, GE Healthcare Life Sciences, Glattbrugg, Switzerland). After three washing steps with 5 ml of reaction buffer, filter-bound radioactivity was determined in a β-counter.

[2] = tested on: B6 mice with AAC; experiment: Chronic pressure overload (AAC) model of heart failure, oral treatment for 2 months; format: in vivo, mouse; conditions: for left ventricular ejection fraction: B6 mice, oral 2 months, Compound-1 3 mg/kg/d, Compound-4 5 mg/kg/d, untreated AAC 28.6%±3.5%, ±s.d., n=5
Protocol: A, The left ventricular ejection fraction was determined in 6 month-old male B6 mice with chronic pressure overload imposed by 3 months of AAC and oral treatment with Compound-1 (AAC+compd-1) and Compound-4 (AAC+compd-4) relative to untreated AAC controls. Treatment was started one month after AAC induction and was continued for 2 months. Only mice with heart failure (ejection fraction <34% after one month of AAC) were included in the study (±s.d., n=5/group, ***p=0.0006, **p=0.0051 vs. untreated AAC; Dunnett's multiple comparison test).
We investigated whether the new small molecule GRK2 inhibitors, Compound-1 (1-(1,3-benzodioxol-5-yl)-4-(cyclopropanecarbonyl)-3-hydroxy-2-phenyl-2H-pyrrol-5-one)) and Compound-4 (4-(1,3-benzodioxol-5-yl)pyrimidine) could retard symptoms of heart failure in a chronic pressure overload model of heart failure imposed by abdominal aortic constriction (AAC). Compound-1 (3 mg/kg/d) and Compound-4 (5 mg/kg/d) were applied orally in the AAC-induced model of heart failure. Oral treatment with Compound-1 and Compound-4 was initiated in B6 mice with symptoms of heart failure (left ventricular ejection fraction <34%) induced by four weeks of AAC.
Chronic pressure overload imposed by abdominal aortic constriction (AAC) was used as an experimental model to induce cardiac hypertrophy and signs of heart failure. Aortic constriction of the abdominal aorta was performed in tribromoethanol-anesthetized 8-12 week-old transgenic mice or non-transgenic B6 controls as described (AbdAlla S, et al., Cardiovasc. Hematological Agents Med. Chem. 9, 190-206 (2011)). The abdominal aorta was constricted above the suprarenal artery by tying a 7-0 silk suture ligature against a blunt 26-gauge needle. Age-matched controls underwent identical surgical procedure except for ligation of the aorta (sham-operated mice).

[3] = read-out: IC50 value, inhibition of GRK2-mediated SRSF1 phosphorylation

Molecule | IC50 value lower than that of paroxetine ([1]; GRK2-mediated SRSF1 phosphorylation) | IC50 ([1]; n=4, read-out: IC50 value, inhibition of GRK2-mediated phosphorylation of SRSF1) | IC50 [1, 3] | cardiovascular disease-induced ageing (grey coloring of the hair) ([2]; 2 months (8 weeks) of treatment, AAC mice) | AAC-induced cardiac hypertrophy (histology) ([2]; 3 months AAC, 2 months oral treatment) | left ventricular ejection fraction ([2]; 3 months AAC) | Inhibition of the in vitro phosphorylation of SRSF1 by GRK2 ([1]; result in words)
O=C(C1=C(O)C(c2ccccc2)N(c2ccc3c(c2)OCO3)C1=O)C1CC1 (stereo not drawn) [Compound-1, 1-(1,3-benzodioxol-5-yl)-4-(cyclopropane-carbonyl)-3-hydroxy-2-phenyl-2H-pyrrol-5-one] | more than 5 fold | 450 nM | 450 nM | substantially retarded | retards; also recorded: decrease | 41.4±4.8% | –
c1cc(-c2ccc3c(c2)OCO3)ncn1 [Compound-4, 4-(1,3-benzodioxol-5-yl)pyrimidine] | – | – | 1870 nM | – | – | 38.2±3.7% | –
B1 | – | – | – | – | – | – | does not inhibit; also recorded: did not inhibit
